In patent publication US20080213404A1, “Hif Modulating Compounds and Methods of Use Thereof” (priority 2005, published 2008):
Counter-ions that a name gives are not always drawn. Like-named read-outs stand apart in the source and are kept apart here.

What was measured:
HIF-1α = test: Western blot of HIF-1α in macrophages exposed to GAS; assay type: cell-based, mouse; conditions: WT macrophages, normalized to β-actin
Method: (§1) FIG. 6 provides graphs showing HIF-1 and vHL regulate NO production. (A) Total RNA from WT, HIF-1−/−, and vHL−/− bone marrow-derived macrophages infected with GAS isolated 3 hours after antibiotic treatment. iNOS mRNA was quantified by RT-PCR. WT, nonstimulated macrophages were arbitrarily set to 1 unit following normalization to ribosomal RNA levels. (B) NO production under GAS stimulation ±1.5 mM AG ([…]; Calbiochem). BM-derived macrophages were cultured for 20 hours, conditioned supernatant collected, and NO […] levels measured by the Griess assay. (C) Mim enhances iNOS expression of WT macrophages stimulated by GAS. Total RNA from WT and HIF-1-null BM-derived macrophages infected with GAS±Mim isolated 3 hours after antibiotic treatment. iNOS mRNA was quantified by RT-PCR. WT, noninfected macrophages were arbitrarily set to 1 unit following normalization to ribosomal RNA levels. Statistical analyses performed by unpaired Student's t test. **P<0.01; ***P<0.001. […]
Peritoneal neutrophils or bone marrow-derived macrophages inoculated with GAS were harvested and washed with PBS, and proteins were extracted with HTAB or RIPA buffers. Protein concentration was calculated using the Bio-Rad assay (Bio-Rad Laboratories). […] Immunoreactive proteins were detected using the ECL chemiluminescent system (Amersham Biosciences).

TNF-α = TNF-α ELISA of conditioned macrophage supernatants after GAS; assay type: cell-based, mouse; conditions: WT, HIF-1α and vHL-deficient macrophages, 1 hour after antibiotic treatment
Method: FIG. 7 is a series of graphs illustrating HIF-1 and vHL regulate TNF-production. (A) Total RNA from WT, HIF-1−/−, and vHL−/− bone marrow-derived macrophages infected with GAS were isolated 3 hours after antibiotic treatment. TNF-mRNA was quantified by RT-PCR. WT, nonstimulated macrophages were arbitrarily set to 1 unit following normalization to ribosomal RNA levels. (B) inhibition of iNOS decreases TNF-production. BM-derived macrophages were cultured for 1 hour after antibiotic treatment. Conditioned supernatant was harvested and TNF-protein analyzed by ELISA (eBiosciences). Statistical analyses were performed using unpaired Student's t test. ***P<0.001.
We next examined the expression pattern of TNF-α, a cytokine involved in the augmentation of inflammatory responses to microbial infection. Indeed, development of GAS-necrotizing fasciitis has been reported as a complication of anti-TNF-α therapy (37). […] Whereas basal levels of TNF-α protein expression were similar in WT, HIF-1α, and vHL-null macrophages, loss of HIF-1α also strongly depressed the rapid secretion of TNF-α protein in response to GAS (FIG. 7B).

NO production = test: Nitrite determination (Griess assay) in macrophage supernatants under GAS stimulation; assay type: cell-based, mouse; conditions: 1.5 mM AG; macrophages cultured 20 hours
Method: as §1
The concentration of nitrite (NO2-), the stable oxidized derivative of NO, was determined in 100-μl aliquots of cell culture supernatants transferred to 96-well plates. Essentially, 100 μl of Griess reagent (1% sulfanilamide, 0.1% naphthylene diamine dihydrochloride, 2% H3PO4) was added per well, and the absorbances were measured at 540 nm in a microplate reader. […]

[1] = test system: intracellular killing of GAS by macrophages; test: Bacterial killing assay (antibiotic protection): intracellular killing of GAS by macrophages; assay type: cell-based, mouse; conditions: for intracellular killing of GAS by WT macrophages: preincubation 5 hours, L-Mim 800 μM, OH-pyridone 150 μM, desferrioxamine mesylate 100 μM, CoCl2 100 μM
Method: FIG. 2 is a series of graphs showing HIF-1 regulates bactericidal activity of myeloid cells. (A) Intracellular killing of GAS by WT, HIF-1-null, or vHL-null macrophages. BM-derived macrophages were inoculated with GAS at an MOI equal to 2.5 and cultured under normoxic (white bars) or hypoxic (0.1%; black bars) conditions for 1 hour after antibiotic treatment. Statistical analyses were performed using unpaired Student's t test. *P<0.05; **P<0.01. (B) Loss of HIF-1 in macrophages decreases intracellular killing of GAS and of P. aeruginosa. WT (black bars) or HIF-1-null (white bars) BM-derived macrophages were incubated with bacteria for 1 hour before antibiotics were added. Intracellular killing was analyzed by determination of viable CFUs in macrophage lysates at the specified time points after bacterial uptake. Experiments were performed in triplicate. […] Experiment shown is representative of 3 repeated studies. (C) Loss of vHL in BM-derived macrophages increases intracellular killing of GAS and of P. aeruginosa. Experiments were performed in triplicate and are representative of 3 repeated studies. […] (D) Pharmacologic agonists of HIF-1 increase myeloid cell bactericidal activity. Preincubation (5 hours) with desferrioxamine mesylate (DFO), CoCl2, OH-pyridone, or Mim increased the intracellular killing capacity of WT macrophages against GAS. ***P<0.001.
To assess the functional consequences of HIF-1α activation, we used an antibiotic protection assay to calculate intracellular killing of GAS by WT macrophages compared with killing by those derived from the bone marrow of HIF-1α-lysMcre mice (11). Here, targeted deletion of the HIF-1α gene has been created via crosses into a background of cre expression driven by the lysozyme M promoter (lysMcre), allowing specific deletion of the transcription factor in the myeloid lineage (11). […] Macrophage killing of the Gram-negative bacterium P. aeruginosa was likewise impaired upon deletion of HIF-1α (FIG. 2B).
Finally, we treated WT macrophages with a number of known pharmacologic inducers of HIF-1α that each act directly or indirectly to inhibit prolyl hydroxylase targeting of HIF-1α for ubiquitination. These included the iron chelator desferrioxamine, CoCl2, L-Mim, and 3-hydroxy-1,2-dimethyl-4(1H)-pyridone (OH-pyridone) (13). The addition of each of these agents increased intracellular killing of GAS by WT macrophages (FIG. 2D).
Bacterial killing assays. GAS were grown to logarithmic phase in THB to OD600=1×10^8 cfu/ml. Bacteria were added to macrophages at an MOI of 2.5 bacteria/cell and intracellular killing assessed using an antibiotic protection assay (11, 53) or, alternatively, total cell-associated bacteria measured by vigorous washing with PBS×3 to remove nonadherent bacteria. At the end of the assay, total cell lysate was plated on THB agar for enumeration of CFU. […] To assess macrophage viability, the monolayers were washed with PBS and incubated with 0.04% Trypan blue for 10 minutes at 37° C. As specified in the FIG. 2 legend and in Results, macrophages were preincubated with L-Mim (800 μM), OH-pyridone (150 μM), desferrioxamine mesylate (100 μM), or CoCl2 (100 μM) for 5 hours prior to the killing assay; each drug level was known to be sufficient for HIF-1 induction (13). Absence of bacterial inhibition was tested by incubating the drugs at the above concentrations with GAS (˜105) at 37° C. for 1-24 hours. Mouse model of GAS infection.

[2] = test system: HIF-1α-dependant transcription (HRE-luciferase reporter); test: HRE-luciferase reporter assay in BM-derived macrophages of HRE-luciferase transgenic mice; assay type: cell-based, mouse; conditions: 18 hours; L-Mim 800 μM, desferrioxamine mesylate 150 μM, CoCl2 150 μM
Method: (C) HRE-luciferase BM-derived macrophages were incubated either with GAS or heat-inactivated GAS at an MOI equal to 5-10 under hypoxia (1%) or with the addition of mimosine (800 μM), desferrioxamine mesylate (150 μM), or CoCl2 (150 μM) for 18 hours.
We measured HIF-1α-dependant transcription in macrophages derived from HRE-luciferase transgenic mice, which contain a luciferase reporter gene driven by 6 consecutive specific HRE sequences.
Macrophages were derived from the marrow of femurs and tibiae of transgenic HRE-luciferase mice as described above. The luciferase reporter gene in these mice is driven by 6 specific HRE sequences. Cells were incubated with GAS or heat-inactivated GAS for 18 hours. […] Cells were then washed out with PBS, and luciferase assay was performed by using the Bright-Glo Luciferase Assay kit (Promega Corp.). Luciferase activities were measured using a luminometer.

Staphylococcus aureus [3] = test: Bactericidal capacity of cultured human monocytic cells against S. aureus; assay type: cell-based
Staphylococcus aureus [4] = test: Bactericidal capacity of freshly isolated human neutrophils against S. aureus; assay type: cell-based
iNOS = iNOS mRNA by RT-PCR in BM-derived macrophages infected with GAS; assay type: cell-based, mouse; conditions: for expression of iNOS mRNA: WT macrophages infected with GAS, RNA isolated 3 hours after antibiotic treatment
Method: (A) Total RNA from WT, HIF-1−/−, and vHL−/− bone marrow-derived macrophages infected with GAS isolated 3 hours after antibiotic treatment. iNOS mRNA was quantified by RT-PCR. WT, nonstimulated macrophages were arbitrarily set to 1 unit following normalization to ribosomal RNA levels. […] Total RNA from WT and HIF-1-null BM-derived macrophages infected with GAS±Mim isolated 3 hours after antibiotic treatment. iNOS mRNA was quantified by RT-PCR. WT, noninfected macrophages were arbitrarily set to 1 unit following normalization to ribosomal RNA levels. Statistical analyses performed by unpaired Student's t test. **P<0.01; ***P<0.001.
First-strand synthesis was obtained from 1 μg of total RNA isolated with Trizol reagent (Molecular Research Center Inc.) by the SuperScript system (Invitrogen Corp.), employing random primers.

[5] = test system: vincomycin-resistant Enterococcus species; conditions: freshly isolated human neutrophils
[6] = test system: vincomycin-resistant Enterococcus species; conditions: cultured human monocytic cells
Staphylococcus aureus [7] = test: Bactericidal capacity of freshly isolated human blood; assay type: cell-based

Q: `Cc1ccc(S(=O)(=O)O)cc1.NNC(N)=NO` [AG, 1-amino-2-hydroxyguanidine, p-toluenesulfate] was tested. Which “GAS-induced increase of HIF-1α levels” value (HIF-1α) did it give?
A: blocked

Q: What about the “TNF-α protein in conditioned supernatants” value (TNF-α) of the same compound?
A: reduced amounts

Q: What about the “production of NO in response to GAS” value (NO production) of the same compound?
A: significantly inhibited

Q: What about the “bactericidal activity of HIF-1α-null macrophages” value ([1]; HIF-1α-null macrophages, presence of iNOS inhibitor) of the same compound?
A: did not further suppress

Q: What about the “bactericidal activity of WT macrophages” value ([1]; WT macrophages, presence of iNOS inhibitor) of the same compound?
A: inhibited

Q: For `[Cl][Co][Cl]` [CoCl2, cobalt chloride], which “increase in luciferase reporter activity” value [2] is on record?
A: 3 fold

Q: And the “intracellular killing of GAS by WT macrophages” value (“intracellular killing of GAS” for short) [1]?
A: increased

Q: What does the source list for `N[C@@H](Cn1ccc(=O)c(O)c1)C(=O)O` [L-Mim, 3-Hydroxy-4-oxo-1(4H)-pyridinealanine]?
A: bactericidal capacity against Staphylococcus aureus (Staphylococcus aureus [3]): increase; bactericidal capacity against Staphylococcus aureus (Staphylococcus aureus [4]): increase; increased expression of iNOS mRNA (iNOS; HIF-1α-null macrophages infected with GAS): very low; expression of iNOS mRNA (iNOS): greatly increased; expression of iNOS mRNA (iNOS; listed as Mim): enhances; bactericidal capacity against vincomycin-resistant Enterococcus species [5]: increase; bactericidal capacity against vincomycin-resistant Enterococcus species [6]: increase; bactericidal capacity against Staphylococcus aureus (Staphylococcus aureus [7]): increase; intracellular killing of GAS by WT macrophages [1]: increased

Q: Which “intracellular killing of GAS” value [1] does the source give for `Cc1c(O)c(=O)ccn1C` [OH-pyridone, 3-hydroxy-1,2-dimethyl-4(1H)-pyridone] here?
A: increased

Q: Which “increase in luciferase reporter activity” value [2] does the source give for `CC(=O)N(O)CCCCCNC(=O)CCC(=O)N(O)CCCCCNC(=O)CCC(=O)N(O)CCCCCN` [desferrioxamine mesylate] here?
A: 3 fold

Q: What about the “intracellular killing of GAS” value [1] of the same compound?
A: increased
